The source of these data is paper PMC7522982, “PKIS deep dive yields a chemical starting point for dark kinases and a cell active BRSK2 inhibitor” (Scientific Reports, 2020).

As a reminder, the IC50 is the concentration at which inhibition is half-maximal.

Several values for one entry are separate records, joined by “and”; a condition that tells them apart may be missing. Identical values can stand only once. Like-named read-outs stand apart in the source and are kept apart here.

Assay [1] has as its target T1, NLuc-BRSK2 in HEK293 cells (Homo sapiens, UniProt Q8IWQ3).
T1 construct: host or cells: HEK293
T1 sequence (Q8IWQ3 1-736): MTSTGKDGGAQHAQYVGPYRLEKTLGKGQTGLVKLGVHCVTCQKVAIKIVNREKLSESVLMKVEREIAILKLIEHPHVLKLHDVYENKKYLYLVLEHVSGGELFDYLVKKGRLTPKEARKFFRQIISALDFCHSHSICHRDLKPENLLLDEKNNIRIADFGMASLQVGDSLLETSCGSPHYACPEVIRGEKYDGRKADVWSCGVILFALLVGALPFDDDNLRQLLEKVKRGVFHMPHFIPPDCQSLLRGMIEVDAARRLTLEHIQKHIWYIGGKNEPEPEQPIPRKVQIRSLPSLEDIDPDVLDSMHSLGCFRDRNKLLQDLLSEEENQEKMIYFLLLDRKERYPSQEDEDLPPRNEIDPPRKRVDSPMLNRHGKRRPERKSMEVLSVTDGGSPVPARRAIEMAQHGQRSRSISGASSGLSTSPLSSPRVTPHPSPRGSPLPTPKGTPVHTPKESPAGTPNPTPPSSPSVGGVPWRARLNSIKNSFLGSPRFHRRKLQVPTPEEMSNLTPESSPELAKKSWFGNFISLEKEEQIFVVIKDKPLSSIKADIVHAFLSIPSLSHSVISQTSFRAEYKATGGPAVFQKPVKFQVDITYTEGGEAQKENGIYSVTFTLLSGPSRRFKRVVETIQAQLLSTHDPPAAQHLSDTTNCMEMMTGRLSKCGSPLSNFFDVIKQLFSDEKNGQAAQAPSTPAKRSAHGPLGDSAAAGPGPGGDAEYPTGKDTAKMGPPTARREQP
The assay can be described thus: BRSK2 NanoBRET cellular target engagement assay. Particulars: HEK293 cells transiently expressing NLuc-BRSK2, Tracer K5 1 μM, N = 3. Format: cell-based. How it is done: Our interest in illuminating BRSK2 biology motivated further investigation of the cellular target engagement of BRSK2 by GW296115 using our NanoBRET assay. BRSK2 kinase was fused to 19-kDa luciferase (NLuc) at its N-terminus (NLuc–BRSK2) which was transiently expressed in HEK293 cells, and then incubated with a cell-permeable fluorescent energy transfer probe (tracer)[23].
NanoBRET assays were executed as described previously. Constructs for BRSK2 NanoBRET measurements were provided in kind by Promega. The N-terminal Nanoluciferase (NL)/BRSK2 fusion (NL-BRSK2) was encoded in pFN32K expression vector, including flexible Gly-Ser-Ser-Gly linkers between NL and BRSK2 (Promega). For cellular BRSK2 NanoBRET target engagement experiments, a 10 μg/mL solution of DNA in Opti-MEM without serum (Gibco) was prepared with 9 μg/mL of Carrier DNA (Promega) and 1 μg/mL of NL-BRSK2 to achieve a total volume of 1.05 mL. To this solution was then added 31.5 μL of FuGENE HD (Promega) to form a lipid:DNA complex, mixed by inversion 8 times, and incubated at room temperature for 20 min. The resulting transfection complex (1.082 mL) was next gently mixed with HEK293 cells (21 mL) suspended at a density of 2 × 10^5 cells/mL in DMEM containing 10% FBS.
After 24 h, media was removed via aspiration and 85 μL of room temperature Opti-MEM without phenol red (Gibco) was added to each well. […] Next, 5 μL (20 × working stock of NanoBRET Tracer K5 [20 μM] in Tracer Dilution Buffer (Promega N291B)) was added to each well with the exception of the “no tracer” control wells. Test compounds were prepared as concentrated stock solutions in 100% DMSO (Sigma) at a concentration of 10 mM. […] A volume of 10 μL of tenfold test compound stock solutions (final assay concentration of […]) was added to each well. For “no compound” and “no tracer” control wells, 10 μL of Opti-MEM plus DMSO (9 μL Opti-MEM plus 1 μL DMSO) was added to each well to achieve a final concentration of 1% DMSO.
After 2 h, plates were returned to room temperature over the course of 15 min. […] Next, 50 μL of the 3 × substrate/extracellular NL inhibitor stock was added to each well.
Test compounds were evaluated at 8 concentrations in competition with NanoBRET Tracer K5 in HEK293 cells transiently expressing the NL-BRSK2 fusion protein. Raw milliBRET (mBRET) values were obtained by dividing the acceptor emission values (600 nm) by the donor emission values (450 nm), and then multiplying by 1000. Averaged control values were used to represent complete inhibition (no tracer control: transfected cells in Opti-MEM + DMSO; tracer control: transfected cells in Opti-MEM + DMSO + Tracer K5 only), and were plotted alongside the raw mBRET values. The data with n = 3 biological replicates was first normalized and then fit using Sigmoidal, 4PL binding curve in Prism Software (version 8, GraphPad, La Jolla, CA, USA).
(Bioluminescence resonance energy transfer reports proximity on the nanometre scale.)

The target in a further assay is T2, BRSK2 (Homo sapiens, UniProt Q8IWQ3).
T2 sequence (Q8IWQ3 1-736): T1 sequence (Q8IWQ3 1-736)
More on the design: purchased Eurofins. The following applies: 0.5 μM; cited from earlier work.

Where [2] appears, read: read-out: BRSK2 NanoBRET data IC50.

In the case of `O=C1NC(=O)c2c1c1c3ccccc3n3c1c1c2c2ccccc2n1C1CCC3O1` [SB 218078], the IC50 in assay [1] (setting [2]) was 883 ± 200 nM.

`O=C1NCc2c1c1c3ccccc3[nH]c1c1[nH]c3ccccc3c21` [K-252c]: half-maximal inhibition in assay [1] (BRSK2 NanoBRET data IC50 (nM)) (IC50) required 308 ± 250 nM.

In the case of `COC(=O)C1(O)CC2OC1(C)n1c3ccccc3c3c4c(c5c6ccccc6n2c5c31)C(=O)NC4` (stereo not shown) [K-252a], in assay [1] (BRSK2 NanoBRET data IC50 (nM)), the IC50 was 20.2 nM and < 100 nM.

For `O=C1NC(=O)c2c1c1c3ccccc3[nH]c1c1[nH]c3cc(Br)ccc3c21` [CDK4 inhibitor], the 50% inhibitory concentration (IC50) in assay [1] (setting [2]) amounted to 1330 ± 230 nM.

Turning to `Cn1c2ccccc2c2c3c(c4c5ccccc5n(CCC#N)c4c21)CNC3=O` [Gö 6976], in assay [1] (setting [2]), the IC50 stood at 914 ± 640 nM.

Consider `O=C1NC(=O)c2c1c1c3ccccc3[nH]c1c1[nH]c3ccccc3c21` [Arcyriaflavin A], for which the IC50 in assay [1] (setting [2]) was 7680 ± 3500 nM.

Regarding `O=C1NC(=O)C(c2c[nH]c3ccccc23)=C1c1c[nH]c2ccccc12` [Bisindolylmaleimide IV, bisindolylmaleimide IV], the “biochemical inhibition of BRSK2” value at BRSK2 is recorded as “weak biochemical inhibition”.
